According to patent publication US20200108043A1, “COMPOUNDS AND COMPOSITIONS FOR EXTENDING LIFESPAN OF A SUBJECT” (YALE UNIVERSITY, priority 2017, published 2020):

Legend:
Saccharomyces cerevisiae [1] = assay: High-Life (High throughput replicative Lifespan measurement) flow cytometry assay in MEP yeast; format: cell-based; conditions: 10 μM, 24 hours in culture, 3-4 replicate wells, repeat of screen hits
Procedure: Cells were labeled with NHS-fluorescein as described above, then diluted to 20 cells/μL in media. 80 μL/well was aliquoted to 384-well plates, which were covered with a breathable membrane and placed on a shaker platform in a humidified incubator. After 3 hours, the plates were removed from the incubator and each well was treated with 20 μL pre-warmed, 30° C. 5 μM β-estradiol in media. In the case of ibuprofen or compound-treated wells, the compound was diluted in this volume at a 5× concentration to achieve a final concentration of 10 μM, or 100 μM for ibuprofen. The plates were then returned to the incubator. At indicated times, one plate was removed from the incubator and placed on an autosampler cooled to 8° C. attached to a Stratedigm flow cytometer. The cytometer was set to automatically add and mix 20 μL of aqueous solution containing 60 μg/mL CF405M-WGA (Biotium 29028) and propidium iodide (Sigma P4864) prior to acquiring 80 μL of sample for each well.
In order to test the lifespan of model organisms on both a large-scale and with quick turn-around, a massively multiplexed method was developed to measure replicative lifespan in the short-lived model organisms Saccharomyces cerevisiae. The protocol uses green-fluorescent labeling to identify progenitor cells, red-fluorescent labeling to differentiate non-viable cells, and blue-fluorescent labeling of bud scars to determine replicative age (FIG. 1). Each parameter is measured using a flow cytometer.
To achieve high throughput, the measurement system was automated, and the assay was performed in 384-well plates. The assay was performed using an autosampler-equipped flow cytometer, in a volume of 100 μL. Growth of even a single cell and its progeny in such a small volume will result in nutrient starvation before the natural replicative lifespan is exhausted; therefore to circumvent this issue, High-Life experiments were performed in the background of the Mother Enrichment Program (MEP) (Lindstrom and Gottschling, Genetics. 2009 October; 183(2):413-22). MEP strains express a CRE recombinase fused to an estrogen-binding domain for only a short time after birth. In the presence of β-estradiol, the recombinase translocates to the nucleus where it can excise two essential genes that have been modified to contain the exogenous LoxP sequence. Addition of β-estradiol to the media thus renders newborn daughters inviable without affecting existing mother cells, preventing exponential growth of the cell population and nutrient depletion (FIG. 2A).
The High-Life method was then tested to determine if it was suitable to screening for compounds that extend replicative lifespan. […] The effect of these compounds on High-Life readings was assayed after 24 hours in culture at 10 μM concentration. As a positive control, ibuprofen was used.

Saccharomyces cerevisiae [2] = assay: as above; format: cell-based; conditions: fresh samples from secondary source, 24 hours of culture

With `COc1c(C)c2c(c(O)c1C/C=C(\C)CCC(=O)O)C(=O)OC2` [mycophenolic acid] the “average High-Life readings (progenitor fraction viable vs CF405M intensity) relative to controls” value (Saccharomyces cerevisiae [1]) was “at least slightly above controls” and the “dose-response: cell survival in High-Life” value (Saccharomyces cerevisiae [2]) was “clear concentration-dependent effects”.
